pIC50: −log10 of the molar value.

One assay concerns the target T1, PD-1/PD-L1 binding (Homo sapiens, UniProt Q9NZQ7).
T1 construct: purchased Sino Biological Inc. 10084-H02H-100 (PD-L1-Fc); 10377-H08H-50 (His-PD-1)
Briefly: HTRF inhibition of PD-1/PD-L1 binding in vitro. To be noted: His-PD-1 100 nM, PD-L1-Fc 2 nM, read-out: IC50 inhibiting PD-1/PD-L1 binding in vitro. The text has this: Homogeneous Time-Resolved Fluorescence (HTRF): This method used the recombinant human PD-L1 protein fused to express the hFc tag and the recombinant human PD-1 protein fused to express the His tag, both of which were interacting ligands and receptors. When the anti-hFc antibody containing Eu element chelation marker and the anti-His antibody labeled with XL665 fluorescein were bound with the above two corresponding labels, and excited by a laser with a wavelength of 320 nm, the ligand-receptor binding enabled the energy to be transferred from the Eu element to the XL665 fluorescein, which was excited to emit light at a wavelength of 665 nm. However, when an inhibitor of the interaction between PD-L1 and PD-1 was added, the binding of the ligand to the receptor was destroyed, so that the distance between Eu and XL665 was far away, the energy cannot be transferred, and XL665 would not be excited.
Recombinant human PD-1 protein with His tag (His-PD-1 protein, Cat #: 10377-H08H-50), and recombinant human PD-L1-Fc fusion protein (PD-L1-Fc fusion protein, Cat #: 10084-H02H-100) were purchased from Sino Biological Inc., […] and anti-His-XL665 antibody were purchased from Cisbio Company, and other related reagents such as dilution buffer (Diluent buffer 5, Cat #: 62DL5DDC), detection buffer (PPI-Europium detection buffer, Cat #: 61DB9RDF) were purchased from Cisbio Company. Fluorescence detection instrument Tecan (Spark 10 M) was purchased from Switzerland Tecan Company.
(1) Experimental preparation: The test compound was diluted with dilution buffer into different concentration gradients (the highest final concentration in 20 μL final reaction system was 10 μM), His-PD-1 protein was diluted to 800 nM (the final concentration in 20 μL final reaction system was 100 nM), and the PD-L1-Fc fusion protein was diluted to 16 nM (final concentration was 2 nM). The anti-His-XL665 antibody and anti-hFc-Eu^3+ antibody were respectively diluted 20 times and 100 times using the detection buffer according to the reagent requirements.
(2) 5 μL of test compound, 2.5 μL of PD-L1-Fc fusion protein and 2.5 μL of His-PD-1 protein solution were mixed, and incubated at room temperature for 15 min. Then the system was added with 5 μL of anti-His-XL665 antibody and 5 μL of anti-hFc-Eu^3+ antibody, incubated for another 3 h, and then detected.
(3) When detecting the reaction, a control group was also provided, including a 0% inhibition positive control without adding test compounds and a 100% inhibition negative control without adding PD-1 protein. All detections were performed with duplicates.
(4) The fluorescence signal of each well was measured using a fluorescence detector Tecan (Spark 10M) at an excitation wavelength of 320 nm, and emission wavelengths of 620 nm and 665 nm, respectively. The intensity of the mutual binding of PD-1 and PD-L1 referred to the ratio of fluorescence signals Em665/Em620.
(5) The binding inhibition rate of the test compound was calculated as follows: Inhibition rate (%)=[1−(Fluorescence signal ratio of detection well-fluorescence signal ratio of 100% inhibition negative control)]/(fluorescence signal ratio of 0% inhibition positive control-fluorescence signal ratio of 100% inhibition negative control)×100%. After calculating the inhibition rate on PD-1/PD-L1 binding of the test compounds with different concentration gradients, the 50% inhibitory concentration (IC50) was calculated.
For orientation: Time-resolved FRET reads energy transfer from a long-lived donor to a nearby acceptor.

For a further assay, the target named is T2, CD80/PD-L1 binding (Homo sapiens, UniProt Q9NZQ7).
T2 construct: purchased Sino Biological Inc. 10084-H02H-100 (PD-L1-Fc); 10698-H08H-100 (His-CD80)
Briefly: HTRF inhibition of CD80/PD-L1 binding in vitro. The note with it: His-CD80 100 nM, PD-L1-Fc 2 nM, read-out: IC50 inhibiting CD80/PD-L1 binding in vitro. The text has this:
In addition to PD-1, PD-L1 can also exert immunosuppressive activity by binding to CD80. Similarly, in vitro experiments of binding or binding inhibition of CD80 and PD-L1 can also be measured by homogeneous time-resolved fluorescence (HTRF). When the anti-hFc-Eu^3+ antibody and anti-His-XL665 antibody were bound to the hFC tag fused to PD-L1 and the His tag fused to CD80 respectively, and excited with a 320 nm wavelength laser, the binding of PD-L1 and CD80 enabled energy to be transferred from the Eu element to the XL665 fluorescein, which was excited to emit light. When the inhibitor of the interaction between PD-L1 and CD80 was added, the combination of the two was destroyed, so that the distance between Eu and XL665 was far away, the energy cannot be transferred, and XL665 would not be excited.
Recombinant human CD80 protein with His tag (His-CD80 protein, Cat #: 10698-H08H-100), and recombinant human PD-L1-Fc fusion protein (PD-L1-Fc fusion protein, Cat #: 10084-H02H-100) were purchased from Sino Biological Inc., anti-hFc-Eu^3+ antibody and anti-His-XL665 antibody were purchased from Cisbio Company, and other related reagents such as dilution buffer (Diluent buffer 5, Cat #: 62DL5DDC), detection buffer (PPI-Europium detection buffer, Cat #: 61DB9RDF) were purchased from Cisbio Company. Fluorescence detection instrument Tecan (Spark 10 M) was purchased from Switzerland Tecan Company.
(1) Experimental preparation: The test compound was diluted with dilution buffer into different concentration gradients (the highest final concentration in 20 μL final reaction system was 10 μM), His-CD80 protein was diluted to 800 nM (the final concentration in 20 μL final reaction system was 100 nM), and the PD-L1-Fc fusion protein was diluted to 16 nM (final concentration was 2 nM). The anti-His-XL665 antibody and anti-hFc-Eu^3+ antibody were respectively diluted 20 times and 100 times using the detection buffer according to the reagent requirements.
(2) 5 μL of test compound, 2.5 μL of Hid-CD80 protein and 2.5 μL of […] solution were mixed, and incubated at room temperature for 15 min. Then the system was added with 5 μL of anti-His-XL665 antibody and 5 μL of anti-hFc-Eu^3+ antibody, incubated for another 3 h, and then detected.
(3) When detecting the reaction, a control group was provided, including a 0% inhibition positive control without adding test compounds and a 100% inhibition negative control without adding CD-80 protein. All detections were performed with duplicates.
(4) The fluorescence signal of each well was measured using a fluorescence detector Tecan (Spark 10M) at an excitation wavelength of 320 nm, and emission wavelengths of 620 nm and 665 nm, respectively. The intensity of the mutual binding of CD80 and PD-L1 referred to the ratio of fluorescence signals Em665/Em620.
(5) The binding inhibition rate of the test compound was calculated as follows: Inhibition rate (%)=[1−(Fluorescence signal ratio of detection well-fluorescence signal ratio of 100% inhibition negative control)]/(fluorescence signal ratio of 0% inhibition positive control-fluorescence signal ratio of 100% inhibition negative control)×100%. After calculating the inhibition rate on CD80/PD-L1 binding of the test compounds with different concentration gradients, the 50% inhibitory concentration (IC50) was calculated.

T2 sequence (Q9NZQ7 19-239 limits assumed): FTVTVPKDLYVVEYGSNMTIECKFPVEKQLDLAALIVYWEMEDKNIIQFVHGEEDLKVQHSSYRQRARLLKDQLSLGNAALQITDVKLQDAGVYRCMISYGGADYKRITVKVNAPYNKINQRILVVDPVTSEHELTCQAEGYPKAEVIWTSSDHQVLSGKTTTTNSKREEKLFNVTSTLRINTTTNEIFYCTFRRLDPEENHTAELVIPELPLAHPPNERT
T1 sequence (Q9NZQ7 19-239 limits assumed): as above

For `[2H]C([2H])([2H])OCC12CCC(CCN3CCc4c(nc(C(=O)Nc5cccc(-c6cccc(NC(=O)c7nc8c(n7C)CCN(CCC79CCC(C(=O)O)(CC7)C9)C8)c6Cl)c5F)n4C)C3)(CC1)C2` (single isomer, unassigned) [Compound I-2, 4-(2-(2-((2-chloro-2′-fluoro-3′-(5-(2-(4-((methoxy-d3)methyl)bicyclo[2.2.1]heptane-1-y 1)ethyl)-1-methyl-4,5,6,7-tetrahydro-1H-imidazo[4,5-c]pyridine-2-carboxamido)-[1,1′-biphenyl]-3-yl)carbamoyl)-1-methyl-1,4,6,7-tetrahydro-5H-imidazo[4,5-c]pyridin-5-yl)ethyl)bicyclo[2.2.1]heptane-1-carboxylic acid], the figures for the pIC50 on PD-1/PD-L1 binding and on CD80/PD-L1 binding were 8.82 and 8.96, respectively.

Turning to `[2H]C([2H])([2H])OCC12CCC(CCN3CCc4c(nc(C(=O)Nc5cccc(-c6cccc(NC(=O)c7nc8c(n7C([2H])([2H])[2H])CCN(CCC79CCC(C(=O)O)(CC7)C9)C8)c6Cl)c5F)n4C([2H])([2H])[2H])C3)(CC1)C2` (single isomer, unassigned) [Compound I-7, 4-(2-(2-((2-chloro-2′-fluoro-3′-(5-(2-(4-((methoxy-d3)methyl)bicyclo[2.2.1]heptane-1-yl)ethyl)-1-(methyl-d3)-4,5,6,7-tetrahydro-1H-imidazo[4,5-c]pyridine-2-carboxamido)-[1,1′-biphenyl]-3-yl)carbamoyl)-1-(methyl-d3)-1,4,6,7-tetrahydro-5H-imidazo[4,5-c]pyridin-5-yl)ethyl)bicyclo[2.2.1]heptane-1-carboxylic acid], the pIC50 is 8.86 on PD-1/PD-L1 binding and 8.71 at CD80/PD-L1 binding.

With `[2H]C([2H])([2H])n1c(C(=O)Nc2cccc(-c3cccc(NC(=O)c4nc5c(n4C([2H])([2H])[2H])CCN(CCC46CCC(C(=O)O)(CC4)C6)C5)c3Cl)c2F)nc2c1CCN(CCC13CCC(COC)(CC1)C3)C2` (single isomer, unassigned) [Compound I-8, 4-(2-(2-((2-chloro-2′-fluoro-3′-(5-(2-(4-(methoxymethyl)bicyclo[2.2.1]heptane-1-yl)ethyl)-1-(methyl-d3)-4,5,6,7-tetrahydro-1H-imidazo[4,5-c]pyridine-2-carboxamido)-[1,1′-biphenyl]-3-yl)carbamoyl)-1-(methyl-d3)-1,4,6,7-tetrahydro-5H-imidazo[4,5-c]pyridin-5-yl)ethyl)bicyclo[2.2.1]heptane-1-carboxylic acid], the pIC50 on PD-1/PD-L1 binding is 8.79; on CD80/PD-L1 binding it was 8.75.

On to `[2H]c1c([2H])c(NC(=O)c2nc3c(n2C)CCN(CCC24CCC(COC([2H])([2H])[2H])(CC2)C4)C3)c(F)c(-c2c([2H])c([2H])c([2H])c(NC(=O)c3nc4c(n3C)CCN(CCC35CCC(C(=O)O)(CC3)C5)C4)c2Cl)c1[2H]` (single isomer, unassigned) [Compound I-14, 4-(2-(2-((2-chloro-2′-fluoro-3′-(5-(2-(4-((methoxy-d3)methyl)bicyclo[2.2.1]heptane-1-y 1)ethyl)-1-methyl-4,5,6,7-tetrahydro-1H-imidazo[4,5-c]pyridine-2-carboxamido)-[1,1′-biphenyl]-3-yl-4,4′,5,5′,6,6′-d6)carbamoyl)-1-methyl-1,4,6,7-tetrahydro-5H-imidazo[4,5-c]pyridin-5-yl)ethyl)bicyclo[2.2.1]heptane-1-carboxylic acid], for which the pIC50 at PD-1/PD-L1 binding is 9.29; on CD80/PD-L1 binding it was 9.43.

Take `[2H]C([2H])([2H])OCC12CCC(CCN3CCc4c(nc(C(=O)Nc5cccc(-c6cccc(NC(=O)c7nc8c(n7C)CCN(CCC79CCC(C(=O)O)(CC7)C9)C8)c6Cl)c5Cl)n4C)C3)(CC1)C2` [Compound I-1, 4-(2-(2-((2,2′-dichloro-3′-(5-(2-(4-((methoxy-d3)methyl)bicyclo[2.2.1]heptane-1-yl)ethyl)-1-methyl-4,5,6,7-tetrahydro-1H-imidazo[4,5-c]pyridine-2-carboxamido)-[1,1′-biphenyl]-3-yl)carbamoyl)-1-methyl-1,4,6,7-tetrahydro-5H-imidazo[4,5-c]pyridin-5-yl)ethyl)bicyclo[2.2.1]heptane-1-carboxylic acid]: the pIC50 at PD-1/PD-L1 binding was 9.14; at CD80/PD-L1 binding, 9.24.

For the compound `[2H]C([2H])([2H])OCC12CCC(CCN3CCc4c(nc(C(=O)Nc5cccc(-c6cccc(NC(=O)c7nc8c(n7C)CCN(CCC79CCC(C(=O)O)(CC7)C9)C8)c6C)c5Cl)n4C)C3)(CC1)C2` [Compound I-3, 4-(2-(2-((2′-chloro-3′-(5-(2-(4-((methoxy-d3)methyl)bicyclo[2.2.1]heptane-1-yl)ethyl)-1-methyl-4,5,6,7-tetrahydro-1H-imidazo[4,5-c]pyridine-2-carboxamido)-2-methyl-[1,1′-biphenyl]-3-yl)carbamoyl)-1-methyl-1,4,6,7-tetrahydro-5H-imidazo[4,5-c]pyridin-5-yl)ethyl)bicyclo[2.2.1]heptane-1-carboxylic acid], the pIC50 is 8.54 on PD-1/PD-L1 binding and 8.75 on CD80/PD-L1 binding.
